We go through 5 compounds from patent publication US4032641A, “Nicotinoyl carnitine derivatives” (Tanabe Seiyaku Co., Ltd., priority 1976, dated 1977).

The subject of series [1] is Blood-free fatty acids. As to the kind of experiment: Experiment I: blood free fatty acid after oral administration to fasted rats. The format is in vivo, rat. Particulars: 1 mmol/kg, mean. As for the experimental part: (§1) Test compounds are administered orally to groups of 5 rats (body weight: about 290 g) which fasted overnight. Blood samples were collected from the tail vein at intervals. Blood free fatty acid, serum-triglyceride and serum-cholesterol were determined, respectively.

Series [2] has as its system Serum-cholesterol. As to the kind of experiment: Experiment I: serum-cholesterol after oral administration to fasted rats. Type of series: in vivo, rat. Particulars: 1 mmol/kg, mean. As for the experimental part: as §1
The test system of series [3] is Serum triglyceride. As to the kind of experiment: Experiment I: serum-triglyceride after oral administration to fasted rats. The format is in vivo, rat. The note with it: 1 mmol/kg, rats about 290 g, mean. The procedure: as §1
Series [4] is described as follows: Experiment III: acute toxicity, oral, SD-strain male rats (Van der Waerden's Method). The note with it: rat, in vivo. As for the experimental part: (§2) Test compounds were administered orally to ddY male mice or SD-strain male rats. Seventy-two hours after the administration, 50% lethal dose of the test compounds were estimated in accordance with Van der Waerden's Method.

The nature of series [5]: Experiment III: acute toxicity, oral, ddY male mice (Van der Waerden's Method). The note with it: mouse, in vivo, ddY-strain male mice. The procedure: as §2
Series [6] has as its system Serum-triglyceride. In words: Experiment II: serum-triglyceride after oral administration to fasted rats. The format is in vivo, rat. The note with it: 1 mmol/kg, rats about 170 g, mean ± standard error. The procedure:
Test compounds were administered orally to groups of 5 rats (body weight: about 170 g) which fasted overnight. Blood samples were collected from the tail vain at intervals, and serum-triglyceride was determined.

The conditions of series [7]: use as hypolipidemic agent; known; cited from earlier work.
For series [8], the system named is cholesterol and triglyceride levels in plasma. The note with it: literature; cited from earlier work.
The mark [9] stands for this setting: 0 hrs after oral administration.
The mark [10] stands for this setting: 2 hrs after oral administration.
The mark [11] stands for this setting: 6 hrs after oral administration.
[12] abbreviates: 10 hrs after oral administration.
[13] abbreviates: 12 hrs after oral administration.

Where a name gives a salt, the structure may show the parent alone.

With `CCOC(=O)CC(C[N+](C)(C)C)OC(=O)c1cccnc1` (stereo not shown) [A, Nicotinoyl carnitine ethyl ester nitrate . HNO3], the Blood-free fatty acids was 52 μ moles/dl in series [1] (setting [9]), 27 μ moles/dl in series [1] (setting [10]), 29 μ moles/dl in series [1] (setting [11]) and 65 μ moles/dl in series [1] (setting [12]). Also, the Serum-cholesterol stood at 55 mg/dL in series [2] (setting [11]) and 50 mg/dL in series [2] (setting [12]). The values for the Serum triglyceride in series [3] (setting [11]) and in series [3] (setting [12]) were 12 mg/dL and 16 mg/dL, respectively.

Regarding `CCOC(=O)CC(C[N+](C)(C)C)OC(=O)c1cccnc1` (stereo not shown) [B, Nicotinoyl carnitine ethyl ester chloride. H2 O], the LD50 at 72 h was 6900 mg/kg in series [4] and 5900 mg/kg in series [5]. For the same compound, the Serum-triglyceride in series [6] (setting [11]) was determined as 13 ± 5 mg/dL; in series [6] (setting [13]), 13 ± 4 mg/dL.

For the compound `C[N+](C)(C)CC(CC(=O)OCc1ccccc1)OC(=O)c1cccnc1` (stereo not shown) [C, Nicotinoyl carnitine benzyl ester chloride], the Serum-triglyceride in series [6] (setting [11]) worked out at 10 ± 1 mg/dL; in series [6] (setting [13]) it was 23 ± 3 mg/dL.

Turning to `C[N+](C)(C)CC(CC(N)=O)OC(=O)c1cccnc1` (stereo not shown) [D, Nicotinoyl carnitine amide chloride . HCl], the values for the LD50 at 72 h in series [4] and in series [5] were over 7000 mg/kg and over 7200 mg/kg, respectively.

With `O=C(O)c1cccnc1` [Nicotinic acid, nicotinic acid, reference compound], the side effects result in series [7] was “undesirable side effects such as facial skin flush and itching”. In addition, the Blood-free fatty acids is on record as 38 μ moles/dl in series [1] (setting [9]), 22 μ moles/dl in series [1] (setting [10]), 60 μ moles/dl in series [1] (setting [11]) and 66 μ moles/dl in series [1] (setting [12]). Further, the Serum-cholesterol in series [2] (setting [11]) amounted to 74 mg/dL; in series [2] (setting [12]) it was 70 mg/dL. Moreover, in series [8], the “cholesterol and triglyceride levels in plasma” value is “can be decreased”. Besides, the Serum triglyceride in series [3] (setting [11]) came to 22 mg/dL; in series [3] (setting [12]), 27 mg/dL. Also, the Serum-triglyceride in series [6] (setting [11]) stood at 28 ± 7 mg/dL; in series [6] (setting [13]), 34 ± 5 mg/dL.
